Laboratory results from ChEMBL document CHEMBL1201862, “PubChem BioAssay data set” (2004).
Activity calls are given as the source filed them.

Assays:
Hexokinase HKDC1 = biological target: T1, Hexokinase HKDC1 (Homo sapiens, UniProt Q2TB90); test: HKDC1 hexokinase activators, dose response, biochemical, W721R variant (AID 504730); format: functional
T1 sequence (Q2TB90 whole entry): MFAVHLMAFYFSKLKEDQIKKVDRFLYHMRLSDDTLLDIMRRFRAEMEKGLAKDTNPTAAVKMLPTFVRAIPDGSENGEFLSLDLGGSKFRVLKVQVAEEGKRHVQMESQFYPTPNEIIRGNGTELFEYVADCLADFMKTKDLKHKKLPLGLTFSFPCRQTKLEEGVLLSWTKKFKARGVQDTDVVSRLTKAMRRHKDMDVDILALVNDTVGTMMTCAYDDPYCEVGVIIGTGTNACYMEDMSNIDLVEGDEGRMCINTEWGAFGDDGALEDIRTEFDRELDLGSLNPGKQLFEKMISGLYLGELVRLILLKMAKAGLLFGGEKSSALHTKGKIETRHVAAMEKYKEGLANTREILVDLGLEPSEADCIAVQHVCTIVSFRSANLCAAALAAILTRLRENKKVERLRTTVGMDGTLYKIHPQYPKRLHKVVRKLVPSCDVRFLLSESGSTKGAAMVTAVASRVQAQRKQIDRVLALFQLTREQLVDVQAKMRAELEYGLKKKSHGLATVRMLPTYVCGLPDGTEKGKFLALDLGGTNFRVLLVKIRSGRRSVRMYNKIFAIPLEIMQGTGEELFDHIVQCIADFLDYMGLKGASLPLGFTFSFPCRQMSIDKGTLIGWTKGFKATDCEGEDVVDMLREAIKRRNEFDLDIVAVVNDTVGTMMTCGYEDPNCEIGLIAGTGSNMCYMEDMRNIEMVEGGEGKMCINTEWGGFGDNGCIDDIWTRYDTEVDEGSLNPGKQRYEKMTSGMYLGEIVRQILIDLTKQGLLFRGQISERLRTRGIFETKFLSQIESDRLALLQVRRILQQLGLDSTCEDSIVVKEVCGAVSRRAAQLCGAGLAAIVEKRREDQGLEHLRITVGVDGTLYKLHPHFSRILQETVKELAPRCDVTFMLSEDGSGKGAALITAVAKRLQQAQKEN

[1] = biological target: T2, Short transient receptor potential channel 4 (Mus musculus, UniProt Q9QUQ5); test: TRPC4 positive allosteric modulators, dose response, cell-based, HEK293 TRPC4/mu-opioid, Fluo-4 calcium, EC20 DAMGO (AID 434941); format: functional
T2 sequence (Q9QUQ5 whole entry): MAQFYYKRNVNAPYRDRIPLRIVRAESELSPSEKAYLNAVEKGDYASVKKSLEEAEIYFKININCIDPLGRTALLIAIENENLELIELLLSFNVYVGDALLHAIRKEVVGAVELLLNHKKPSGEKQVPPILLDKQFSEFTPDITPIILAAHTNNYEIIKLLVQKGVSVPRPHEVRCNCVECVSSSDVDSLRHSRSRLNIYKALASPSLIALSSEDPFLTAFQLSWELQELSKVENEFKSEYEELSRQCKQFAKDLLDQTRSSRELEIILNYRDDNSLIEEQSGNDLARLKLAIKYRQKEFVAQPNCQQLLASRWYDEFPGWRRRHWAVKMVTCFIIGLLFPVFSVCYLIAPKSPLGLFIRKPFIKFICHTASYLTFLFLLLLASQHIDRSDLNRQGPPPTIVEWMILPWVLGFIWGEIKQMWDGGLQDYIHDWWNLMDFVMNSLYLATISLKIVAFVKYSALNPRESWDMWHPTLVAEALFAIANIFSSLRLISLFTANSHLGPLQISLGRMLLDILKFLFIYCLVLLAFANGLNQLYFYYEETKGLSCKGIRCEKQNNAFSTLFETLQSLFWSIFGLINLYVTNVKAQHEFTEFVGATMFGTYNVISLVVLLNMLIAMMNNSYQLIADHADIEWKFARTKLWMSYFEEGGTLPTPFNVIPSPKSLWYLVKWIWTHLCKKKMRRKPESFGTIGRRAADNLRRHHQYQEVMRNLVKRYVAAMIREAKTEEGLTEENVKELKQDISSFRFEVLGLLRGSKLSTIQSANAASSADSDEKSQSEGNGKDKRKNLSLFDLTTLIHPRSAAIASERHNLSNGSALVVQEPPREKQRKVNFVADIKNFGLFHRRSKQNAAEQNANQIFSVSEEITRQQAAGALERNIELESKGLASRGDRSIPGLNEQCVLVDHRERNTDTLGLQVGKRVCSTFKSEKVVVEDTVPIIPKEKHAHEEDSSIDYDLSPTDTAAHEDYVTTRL

Troponin, cardiac muscle = Troponin, cardiac muscle (Homo sapiens, UniProt P19429+P45379+P63316); test: Fluorescence-based biochemical high throughput dose response assay for activators of the calcium sensitivity of cardiac Regulated Thin Filaments (RTF). [Related pubchem assays (depositor defined):AID493008, AID493018, AID504382, AID504383]; format: protein-complex assay
[2] = biological target: T2, Short transient receptor potential channel 4; test: mouse TRPC4 channel activators, dose response, cell-based, HEK293 TRPC4/mu-opioid, Fluo-4 calcium (AID 434937); format: functional
Aminopeptidase N = biological target: T3, Aminopeptidase N (Plasmodium falciparum FcB1/Columbia, UniProt O96935); test: P. falciparum M1AAP inhibitors, biochemical, fluorogenic H-Leu-NHMec substrate, 1536-well (AID 1445); set-up: species or system Plasmodium falciparum 3D7, 3D7
T3 sequence (O96935 whole entry): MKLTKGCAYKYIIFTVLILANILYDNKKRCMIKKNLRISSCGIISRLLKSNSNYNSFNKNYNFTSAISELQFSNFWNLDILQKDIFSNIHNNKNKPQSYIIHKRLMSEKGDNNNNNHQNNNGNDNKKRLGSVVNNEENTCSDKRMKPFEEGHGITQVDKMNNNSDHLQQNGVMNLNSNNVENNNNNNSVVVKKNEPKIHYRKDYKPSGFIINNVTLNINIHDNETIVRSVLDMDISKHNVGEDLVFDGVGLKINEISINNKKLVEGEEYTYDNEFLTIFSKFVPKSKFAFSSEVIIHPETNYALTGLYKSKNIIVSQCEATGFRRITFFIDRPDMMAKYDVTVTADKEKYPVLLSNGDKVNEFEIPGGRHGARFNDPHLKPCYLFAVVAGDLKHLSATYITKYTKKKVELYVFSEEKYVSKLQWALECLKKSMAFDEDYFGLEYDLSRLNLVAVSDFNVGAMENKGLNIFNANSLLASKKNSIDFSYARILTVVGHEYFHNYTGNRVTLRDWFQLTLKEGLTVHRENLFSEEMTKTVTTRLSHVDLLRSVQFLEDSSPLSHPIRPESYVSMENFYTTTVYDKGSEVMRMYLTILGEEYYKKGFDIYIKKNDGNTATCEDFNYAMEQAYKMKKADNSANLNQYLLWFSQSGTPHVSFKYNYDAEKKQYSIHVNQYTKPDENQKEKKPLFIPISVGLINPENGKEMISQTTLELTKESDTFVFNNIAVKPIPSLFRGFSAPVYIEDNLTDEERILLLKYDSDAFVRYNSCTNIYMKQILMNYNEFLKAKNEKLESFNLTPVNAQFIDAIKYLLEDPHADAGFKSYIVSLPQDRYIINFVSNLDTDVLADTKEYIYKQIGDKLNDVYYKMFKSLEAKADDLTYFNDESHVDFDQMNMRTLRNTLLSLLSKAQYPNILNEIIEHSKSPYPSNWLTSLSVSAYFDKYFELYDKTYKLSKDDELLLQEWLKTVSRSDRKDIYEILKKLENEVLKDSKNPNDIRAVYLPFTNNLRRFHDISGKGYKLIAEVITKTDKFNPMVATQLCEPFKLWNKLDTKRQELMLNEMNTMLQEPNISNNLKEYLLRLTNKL

[3] = biological target: T4, Calpain-2 catalytic subunit (Sus scrofa, UniProt P43367); test: pig calpain II inhibitor potency, dose response, biochemical, fluorogenic peptide substrate (AID 1420); format: functional
T4 sequence (P43367 whole entry): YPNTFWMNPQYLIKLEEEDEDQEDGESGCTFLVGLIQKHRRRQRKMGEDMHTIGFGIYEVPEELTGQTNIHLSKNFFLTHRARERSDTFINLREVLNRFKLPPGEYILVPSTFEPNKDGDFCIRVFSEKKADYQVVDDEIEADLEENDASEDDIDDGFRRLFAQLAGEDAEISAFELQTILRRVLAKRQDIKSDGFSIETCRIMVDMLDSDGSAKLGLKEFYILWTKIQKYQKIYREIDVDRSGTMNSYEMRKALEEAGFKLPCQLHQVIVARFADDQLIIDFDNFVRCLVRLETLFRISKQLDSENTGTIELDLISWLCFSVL

Hexokinase = Hexokinase (Trypanosoma brucei, UniProt Q38C41); test: Confirmation assay for inhibitors of Trypanosoma brucei hexokinase 1-Analogue-first series. [Related pubchem assays (depositor defined):AID1430, AID1632, AID2516, AID2560, AID2579, AID2600, AID449725, AID492951]; format: functional
[4] = biological target: Voltage-dependent T-type calcium channel subunit alpha-1H (Homo sapiens, UniProt O95180); test: Cav3.2 T-type channel inhibitors, cell-based, synthetic library set 1, calcium flux (AID 493022); format: functional
ORF 73 = ORF 73 (Human herpesvirus 8, UniProt O40947); test: inhibitors of C-LANA binding to LBS DNA, dose response, biochemical, fluorescence polarization, cherry-picked samples (AID 504725); set-up: species or system Human gammaherpesvirus 8;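 further: fluorescence polarization of a labeled DNA duplex reporting LANA DNA binding; potency is for inhibitors that block LANA binding to the DNA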
[5] = biological target: T5, RNA-binding protein pos-1 (Caenorhabditis elegans, UniProt G5EF15); test: inhibitors of POS-1/mex-3 RNA binding, dose response, biochemical, fluorescence polarization (AID 1964);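 further: purified POS-1 fused to maltose binding protein made in E. coli; potency of compounds blocking POS-1 binding to fluorescent RNA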
T5 sequence (G5EF15 whole entry): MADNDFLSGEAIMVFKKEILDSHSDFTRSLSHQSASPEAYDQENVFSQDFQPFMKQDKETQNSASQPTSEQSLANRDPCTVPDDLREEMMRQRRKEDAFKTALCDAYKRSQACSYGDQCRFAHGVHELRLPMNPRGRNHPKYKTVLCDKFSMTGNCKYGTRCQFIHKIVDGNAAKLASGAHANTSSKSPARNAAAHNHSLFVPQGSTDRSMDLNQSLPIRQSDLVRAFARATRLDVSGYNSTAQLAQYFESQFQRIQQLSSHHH

[6] = biological target: T6, Zinc finger protein mex-5 (Caenorhabditis elegans, UniProt Q9XUB2); test: MEX-5/TCR-2 RNA interaction inhibitors, dose response, biochemical, C. elegans, fluorescence polarization (AID 1960)
T6 sequence (Q9XUB2 whole entry): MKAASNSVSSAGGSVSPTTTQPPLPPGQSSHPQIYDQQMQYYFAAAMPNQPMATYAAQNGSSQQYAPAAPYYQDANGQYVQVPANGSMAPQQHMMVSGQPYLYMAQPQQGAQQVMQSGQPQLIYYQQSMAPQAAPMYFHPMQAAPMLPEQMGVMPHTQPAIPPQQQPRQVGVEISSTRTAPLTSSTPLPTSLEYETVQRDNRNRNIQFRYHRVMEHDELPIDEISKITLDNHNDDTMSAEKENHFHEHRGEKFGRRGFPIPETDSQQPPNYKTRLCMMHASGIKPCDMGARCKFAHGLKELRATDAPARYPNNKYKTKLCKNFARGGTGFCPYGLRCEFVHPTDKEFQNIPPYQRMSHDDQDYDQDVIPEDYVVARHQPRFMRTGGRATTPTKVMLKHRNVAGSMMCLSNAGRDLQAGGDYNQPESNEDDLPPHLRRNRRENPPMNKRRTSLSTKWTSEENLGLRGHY

[7] = biological target: T7, Corticotropin-releasing factor receptor 2/Corticotropin-releasing factor-binding protein (Homo sapiens, UniProt P24387+Q13324); test: activators of CRF receptor 2 with binding protein – uHTS hits, confirmation (AID 602473); format: functional; details: read-out: EC50_Mean
T7 sequence (Q13324 whole entry): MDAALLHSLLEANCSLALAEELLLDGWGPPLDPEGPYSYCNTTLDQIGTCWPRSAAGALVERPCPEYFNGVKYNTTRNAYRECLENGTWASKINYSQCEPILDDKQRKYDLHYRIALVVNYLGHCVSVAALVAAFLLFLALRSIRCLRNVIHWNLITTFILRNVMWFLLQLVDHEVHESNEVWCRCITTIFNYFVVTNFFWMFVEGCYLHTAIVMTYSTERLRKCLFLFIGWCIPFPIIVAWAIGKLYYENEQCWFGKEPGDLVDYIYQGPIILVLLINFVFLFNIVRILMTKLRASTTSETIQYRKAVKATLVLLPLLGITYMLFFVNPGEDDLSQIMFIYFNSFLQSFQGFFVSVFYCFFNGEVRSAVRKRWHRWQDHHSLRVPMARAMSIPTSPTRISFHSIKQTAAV
T7 sequence (P24387 whole entry): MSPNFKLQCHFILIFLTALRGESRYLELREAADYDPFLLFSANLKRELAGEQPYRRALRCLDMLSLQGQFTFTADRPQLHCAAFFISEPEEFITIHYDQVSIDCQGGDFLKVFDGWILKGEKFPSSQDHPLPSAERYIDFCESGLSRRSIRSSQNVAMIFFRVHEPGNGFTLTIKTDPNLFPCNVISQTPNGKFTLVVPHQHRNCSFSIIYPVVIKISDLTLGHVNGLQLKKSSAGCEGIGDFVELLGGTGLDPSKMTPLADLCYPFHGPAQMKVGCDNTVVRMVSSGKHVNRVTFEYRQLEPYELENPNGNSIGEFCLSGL

Voltage-dependent T-type calcium channel subunit alpha-1H, sequence (O95180 whole entry): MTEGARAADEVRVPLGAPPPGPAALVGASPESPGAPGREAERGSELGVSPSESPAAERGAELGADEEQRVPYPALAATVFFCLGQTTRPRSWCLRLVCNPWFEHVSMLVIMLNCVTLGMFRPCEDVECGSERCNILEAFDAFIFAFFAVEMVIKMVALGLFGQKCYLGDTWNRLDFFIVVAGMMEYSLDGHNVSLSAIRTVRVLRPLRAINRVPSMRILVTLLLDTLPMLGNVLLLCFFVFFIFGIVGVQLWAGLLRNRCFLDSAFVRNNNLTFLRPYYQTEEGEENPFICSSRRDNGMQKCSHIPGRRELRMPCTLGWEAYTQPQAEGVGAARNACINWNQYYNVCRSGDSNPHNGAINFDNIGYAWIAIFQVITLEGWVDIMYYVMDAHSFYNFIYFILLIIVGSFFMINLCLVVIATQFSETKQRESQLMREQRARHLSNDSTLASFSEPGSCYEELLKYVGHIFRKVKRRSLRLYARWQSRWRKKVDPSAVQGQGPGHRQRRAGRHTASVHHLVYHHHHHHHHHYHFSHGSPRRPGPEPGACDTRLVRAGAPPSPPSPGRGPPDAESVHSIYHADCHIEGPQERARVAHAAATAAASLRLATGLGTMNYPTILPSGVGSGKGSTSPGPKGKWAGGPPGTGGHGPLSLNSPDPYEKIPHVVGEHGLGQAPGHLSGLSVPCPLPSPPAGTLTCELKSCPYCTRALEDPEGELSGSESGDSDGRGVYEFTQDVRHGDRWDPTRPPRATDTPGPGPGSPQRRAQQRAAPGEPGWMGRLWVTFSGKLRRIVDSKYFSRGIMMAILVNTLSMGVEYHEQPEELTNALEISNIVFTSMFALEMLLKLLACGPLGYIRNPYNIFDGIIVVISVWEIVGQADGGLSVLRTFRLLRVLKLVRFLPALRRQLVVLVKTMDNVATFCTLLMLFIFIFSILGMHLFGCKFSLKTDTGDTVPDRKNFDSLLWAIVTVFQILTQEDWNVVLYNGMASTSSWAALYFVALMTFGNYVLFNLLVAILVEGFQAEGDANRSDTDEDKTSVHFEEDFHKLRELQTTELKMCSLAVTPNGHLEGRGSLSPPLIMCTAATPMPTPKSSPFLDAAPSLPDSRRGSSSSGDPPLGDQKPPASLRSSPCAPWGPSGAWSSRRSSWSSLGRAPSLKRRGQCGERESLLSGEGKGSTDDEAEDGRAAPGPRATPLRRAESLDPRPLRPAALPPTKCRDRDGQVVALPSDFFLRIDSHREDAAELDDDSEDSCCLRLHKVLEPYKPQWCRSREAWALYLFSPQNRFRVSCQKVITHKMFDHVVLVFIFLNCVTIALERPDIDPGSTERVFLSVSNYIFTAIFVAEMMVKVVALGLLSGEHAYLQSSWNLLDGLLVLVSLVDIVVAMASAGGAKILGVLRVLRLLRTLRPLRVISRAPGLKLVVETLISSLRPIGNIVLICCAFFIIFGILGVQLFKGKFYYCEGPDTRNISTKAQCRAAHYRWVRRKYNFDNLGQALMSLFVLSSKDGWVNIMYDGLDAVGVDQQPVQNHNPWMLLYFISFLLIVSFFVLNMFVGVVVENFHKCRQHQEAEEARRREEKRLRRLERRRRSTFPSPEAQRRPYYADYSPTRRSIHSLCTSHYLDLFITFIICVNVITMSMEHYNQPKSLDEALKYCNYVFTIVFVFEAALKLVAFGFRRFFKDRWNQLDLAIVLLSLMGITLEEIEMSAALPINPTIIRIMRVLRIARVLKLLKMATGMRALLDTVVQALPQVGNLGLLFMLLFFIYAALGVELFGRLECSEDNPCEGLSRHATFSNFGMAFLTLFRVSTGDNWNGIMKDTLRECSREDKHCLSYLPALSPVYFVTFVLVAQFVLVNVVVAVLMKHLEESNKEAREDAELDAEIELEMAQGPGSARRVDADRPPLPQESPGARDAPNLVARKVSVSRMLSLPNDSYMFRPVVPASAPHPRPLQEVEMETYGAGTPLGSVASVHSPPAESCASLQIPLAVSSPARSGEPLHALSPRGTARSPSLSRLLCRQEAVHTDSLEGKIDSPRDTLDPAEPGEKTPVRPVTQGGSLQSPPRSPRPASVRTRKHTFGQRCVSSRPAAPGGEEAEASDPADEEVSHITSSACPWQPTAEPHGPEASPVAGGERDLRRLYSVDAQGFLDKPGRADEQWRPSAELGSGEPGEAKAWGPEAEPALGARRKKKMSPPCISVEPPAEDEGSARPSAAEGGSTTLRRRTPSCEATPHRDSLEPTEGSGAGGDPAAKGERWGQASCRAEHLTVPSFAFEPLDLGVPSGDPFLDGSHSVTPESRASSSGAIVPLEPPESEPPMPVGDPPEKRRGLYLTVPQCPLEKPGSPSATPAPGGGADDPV
Hexokinase, sequence (Q38C41 whole entry): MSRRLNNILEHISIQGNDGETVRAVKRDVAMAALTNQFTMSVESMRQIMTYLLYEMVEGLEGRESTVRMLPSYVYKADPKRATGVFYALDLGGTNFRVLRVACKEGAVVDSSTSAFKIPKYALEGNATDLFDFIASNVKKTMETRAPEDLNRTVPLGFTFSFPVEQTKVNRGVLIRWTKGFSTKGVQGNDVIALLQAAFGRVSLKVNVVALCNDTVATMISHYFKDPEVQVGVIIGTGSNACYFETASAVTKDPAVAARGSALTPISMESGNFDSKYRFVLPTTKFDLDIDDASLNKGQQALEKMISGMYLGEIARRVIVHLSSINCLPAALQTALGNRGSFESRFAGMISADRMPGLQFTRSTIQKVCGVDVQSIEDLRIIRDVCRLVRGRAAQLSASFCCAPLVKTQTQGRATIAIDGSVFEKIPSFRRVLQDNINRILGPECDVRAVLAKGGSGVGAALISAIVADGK
ORF 73, sequence (O40947 whole entry, the tested form may be a part): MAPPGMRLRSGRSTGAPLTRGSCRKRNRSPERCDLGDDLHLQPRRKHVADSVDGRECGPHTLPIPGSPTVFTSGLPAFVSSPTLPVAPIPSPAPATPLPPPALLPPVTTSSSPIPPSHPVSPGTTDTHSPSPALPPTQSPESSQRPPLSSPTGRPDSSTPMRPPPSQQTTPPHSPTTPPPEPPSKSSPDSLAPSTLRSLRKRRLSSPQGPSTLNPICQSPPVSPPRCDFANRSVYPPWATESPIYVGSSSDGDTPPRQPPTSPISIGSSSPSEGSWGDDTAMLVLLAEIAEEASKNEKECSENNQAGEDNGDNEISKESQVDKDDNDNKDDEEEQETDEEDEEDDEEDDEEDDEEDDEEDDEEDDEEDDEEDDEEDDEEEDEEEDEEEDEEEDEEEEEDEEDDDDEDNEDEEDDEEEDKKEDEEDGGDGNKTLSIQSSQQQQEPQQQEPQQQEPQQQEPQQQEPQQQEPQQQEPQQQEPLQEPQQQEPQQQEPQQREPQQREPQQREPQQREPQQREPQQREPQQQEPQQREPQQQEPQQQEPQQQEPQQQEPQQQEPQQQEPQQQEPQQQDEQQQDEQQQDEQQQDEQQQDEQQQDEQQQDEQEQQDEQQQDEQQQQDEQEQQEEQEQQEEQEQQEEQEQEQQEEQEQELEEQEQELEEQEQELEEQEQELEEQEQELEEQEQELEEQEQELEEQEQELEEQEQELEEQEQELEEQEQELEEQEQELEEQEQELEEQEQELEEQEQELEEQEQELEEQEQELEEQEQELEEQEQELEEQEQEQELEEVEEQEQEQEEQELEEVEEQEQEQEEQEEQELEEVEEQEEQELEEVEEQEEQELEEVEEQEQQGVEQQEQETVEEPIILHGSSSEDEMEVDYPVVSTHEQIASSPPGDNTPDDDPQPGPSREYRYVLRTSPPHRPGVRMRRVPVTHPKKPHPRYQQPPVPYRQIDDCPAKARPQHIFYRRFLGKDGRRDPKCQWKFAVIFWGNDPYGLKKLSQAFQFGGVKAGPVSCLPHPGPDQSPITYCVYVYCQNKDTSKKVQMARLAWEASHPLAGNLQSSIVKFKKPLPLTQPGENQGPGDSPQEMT

CCN(CC)C(=O)c1ccc(C(=O)c2c(C)cc(C)cc2C)cc1
EC50 (Hexokinase HKDC1): > 80 µM (inactive)

COc1ccc(Cl)cc1C(=O)NCCN(C)C
EC50 [1]: 0.67 µM (active)

COc1ccccc1NS(=O)(=O)c1cc([N+](=O)[O-])ccc1N/N=C/c1c(C)[nH]c2ccccc12
EC50 (Troponin, cardiac muscle): 2.57 µM (active)

CCOC(=O)c1c(NC(=O)COC(=O)Cc2c[nH]c3ccccc23)sc(C(=O)N(C)C)c1C
EC50 [1]: 0.42 µM (active)
EC50 [2]: 5.96 µM (active)

COc1ccc(/C=C/C(=O)NC(=S)Nc2ccc(C(=O)O)cc2)cc1
IC50 (Aminopeptidase N): 53 µM (active)
IC50 [3]: > 50 µM (not active)
EC50 (Troponin, cardiac muscle): > 71.5 µM (inactive)

O=C(c1ccccc1)n1sc2ccccc2c1=O
IC50 (Hexokinase): > 25 µM (inactive)

O=C(COc1ccc(F)cc1Cl)Nc1nnc(-c2ccc(F)c(F)c2)o1
EC50 [4]: 1.1 µM (active)

Cc1ccccc1NC(=O)Cn1sc2ccccc2c1=O
IC50 (Hexokinase): 8.52 µM (active)

Clc1ccc(C2=CC(c3ccco3)n3ncnc3N2)cc1 (configuration not stated)
AC50 (ORF 73): 171 µM (active)
EC50 [5]: 24.7 µM (inconclusive)
EC50 [6]: 3.36 µM (active)
EC50 [7]: 8.29 µM (active)

COc1ccc(NC(=O)Cc2c[nH]c3ccccc23)cc1S(=O)(=O)N1CCCCC1
EC50 (Hexokinase HKDC1): > 80 µM (inactive)

CC(Oc1ccccc1)C(=O)Nc1nnc(-c2ccc3c(c2)OCCO3)o1 (configuration not stated)
EC50 [4]: 10 µM (active)
